Assay results reported in PubChem BioAssay (NCI).
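Where inhibition never reached the appropriate level, the endpoint shown equals the highest concentration tested. Otherwise, values were interpolated linearly from a five-concentration, 48-hour dose response in 96-well plates. At the TGI there is no net growth.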

Experiments:
Test in all cases: DTP human tumour cell line panel, 48 h
[1] = tested on: CCRF-CEM leukemia
[2] = tested on: KM20L2 colon
[3] = tested on: MOLT-4 leukemia
[4] = tested on: RPMI-8226 leukemia
[5] = tested on: SNB-78 CNS
[6] = tested on: HL-60(TB) leukemia
[7] = tested on: LXFL 529 NSCLC
[8] = tested on: U251 CNS
[9] = tested on: HCT-116 colon
[10] = tested on: CAKI-1 renal
[11] = tested on: HOP-92 NSCLC
[12] = tested on: DMS 114 small cell lung

Compound | TGI [1] [µM] | TGI [2] [µM] | TGI [3] [µM] | TGI [4] [µM] | TGI [5] [µM] | TGI [6] [µM] | TGI [7] [µM] | TGI [8] [µM] | TGI [9] [µM] | TGI [10] [µM] | TGI [11] [µM] | TGI [12] [µM]
O=C(Nc1ccc(C(F)(F)F)cc1[N+](=O)[O-])C(=O)C(C(=O)c1ccc2ccccc2c1)C1OC(=O)c2ccccc21 (centres undefined) | 35.5 | 38.7 | 10.6 | > 67.3 | 35.4 | 39.6 | 20.9 | 17.5 | 15.3 | 41.7 | 4 | 40.5
CCOC(=O)/C(C#N)=C(O)/C(=C/c1ccccc1Cl)NC(=O)c1ccccc1 | > 100 | > 100 | > 100 | 55.1 | > 100 | > 100 | > 100 | > 100 | > 100 | > 100 | > 100 | > 100
CCc1ccccc1NC(=O)CCc1nc(=S)[nH][nH]1 | > 100 | > 100 | > 100 | > 100 | > 100 | > 100 | > 100 | > 100 | > 100 | > 100 | > 100 | > 100
Cc1cc2c(C(C)C)c(O)c(O)c3coc(/c1=c1/c(C)cc4c(C(C)C)c(=O)c(=O)c5coc1c45)c32 | 16.6 | 18.1 | 17.4 | 34.5 | 25.2 | 17.8 | 12.7 | 14.3 | 10.8 | 26.9 | 7.11 | 6.48
COc1ncnc2c(NC3OC(CO)C(O)C3O)ncnc12 (centres undefined) | 1.57 | > 100 | 1.94 | 3.08 | 71.9 | 0.418 | 83.4 | > 100 | 0.604 | 6.3 | 0.527 | 1.09
CCCCOC(=O)/C(CC(=O)C=C(C)C)=N\NS(=O)(=O)c1ccc(C)cc1 | > 100 | > 100 | > 100 | > 100 | > 100 | > 100 | > 100 | > 100 | > 100 | > 100 | > 100 | > 100
CC(=O)/C=C1/c2ccccc2N(C(C)=O)C1O (centres undefined) | > 100 | > 100 | > 100 | > 100 | > 100 | > 100 | > 100 | > 100 | > 100 | > 100 | > 100 | > 100
Cc1ccccc1C(C#N)/C(=N/NC(=O)c1cc2ccccc2cc1O)C(=O)Nc1cccc(Cl)c1 (centres undefined) | > 100 | 94.4 | > 100 | > 100 | > 100 | 26.8 | > 100 | > 100 | > 100 | > 100 | > 100 | 51.8
O=C1C(NCCO)=C(N2CC2)C(=O)C(NCCO)=C1N1CC1 | 55.9 | > 100 | 58.5 | > 84.8 | > 100 | 57.6 | > 92.9 | > 71.6 | 67.1 | > 100 | > 100 | > 50.9
Clc1ccc(C2=Nc3ccccc3SC(c3ccc(Cl)c(Cl)c3)C2)c(Cl)c1 (centres undefined) | 17.1 | 39.7 | 18.1 | 6.01 | 35.5 | 24.8 | 29.2 | 32 | 23.4 | 29.6 | 30.1 | 27.1
O=[N+]([O-])c1ccc(Cc2nc3ccccc3s2)cc1 | > 100 | > 100 | > 100 | > 100 | > 100 | > 100 | > 100 | > 100 | > 100 | > 100 | > 100 | > 100
CSC(=S)N(C)c1nc(=[N+](C)C)ss1 | > 100 | > 100 | > 100 | > 100 | > 100 | > 100 | > 100 | > 100 | > 100 | > 100 | > 100 | > 100
